For assay [1], the system named is Escherichia coli. As to the kind of experiment: Antibacterial activity against Escherichia coli MTCC 739 assessed as diameter of growth inhibition zone after 24 hr by Kirby-Bauer disk diffusion method. Format: functional. For orientation: Agar diffusion results depend on both activity and mobility in agar.
Assay [2] has as its system Mycobacterium tuberculosis. As to the kind of experiment: Antitubercular activity against Mycobacterium tuberculosis H37Rv MTCC 200 assessed as growth inhibition measured within 10 days by BACTEC MGIT method. Format: functional. The conditions noted are these: H37Rv MTCC 200, 240 h.
In assay [3] the test system is Pseudomonas aeruginosa. As to the kind of experiment: Antibacterial activity against Pseudomonas aeruginosa MTCC 741 assessed as diameter of growth inhibition zone after 24 hr by Kirby-Bauer disk diffusion method. Format: functional.
Assay [4] deals with Escherichia coli. As to the kind of experiment: Antibacterial activity against Escherichia coli MTCC 739 assessed as growth inhibition after 24 hr by Kirby-Bauer disk diffusion method. In kind it is functional. The conditions noted are these: MTCC 739, 24 h.
The subject of assay [5] is Staphylococcus aureus. As to the kind of experiment: Antibacterial activity against Staphylococcus aureus MTCC 96 assessed as diameter of growth inhibition zone after 24 hr by Kirby-Bauer disk diffusion method. In kind it is functional.
The subject of assay [6] is Staphylococcus aureus. In words: Antibacterial activity against Staphylococcus aureus MTCC 96 assessed as growth inhibition after 24 hr by Kirby-Bauer disk diffusion method. Format: functional. The note with it: MTCC 96, 24 h.
Assay [7] has as its system Bacillus subtilis. As to the kind of experiment: Antibacterial activity against Bacillus subtilis MTCC 619 assessed as growth inhibition after 24 hr by Kirby-Bauer disk diffusion method. In kind it is functional. The conditions noted are these: MTCC 619, 24 h.
Assay [8] has as its system Bacillus subtilis. As to the kind of experiment: Antibacterial activity against Bacillus subtilis MTCC 619 assessed as diameter of growth inhibition zone after 24 hr by Kirby-Bauer disk diffusion method. In kind it is functional.
Assay [9] concerns Pseudomonas aeruginosa. As to the kind of experiment: Antibacterial activity against Pseudomonas aeruginosa MTCC 741 assessed as growth inhibition after 24 hr by Kirby-Bauer disk diffusion method. In kind it is functional. The note with it: MTCC 741, 24 h.
Assay [10] relates to Pseudomonas aeruginosa. As to the kind of experiment: microbe, parasite or virus in culture. The conditions noted are these: MTCC 741, 24 h, read-out: DIZ.
Description: Antibacterial activity against Pseudomonas aeruginosa MTCC 741 assessed as diameter of growth inhibition zone at 100 ug/disk after 24 hr by Kirby-Bauer disk diffusion method
The subject of assay [11] is Bacillus subtilis. As to the kind of experiment: microbe, parasite or virus in culture. The conditions noted are these: MTCC 619, 24 h, read-out: DIZ.
Description: Antibacterial activity against Bacillus subtilis MTCC 619 assessed as diameter of growth inhibition zone at 100 ug/disk after 24 hr by Kirby-Bauer disk diffusion method
For assay [12], the system named is Staphylococcus aureus. As to the kind of experiment: Antibacterial activity against Staphylococcus aureus MTCC 96 assessed as diameter of growth inhibition zone at 100 ug/disk after 24 hr by Kirby-Bauer disk diffusion method. The conditions noted are these: MTCC 96, 24 h, read-out: DIZ.
Assay [13] concerns Escherichia coli. As to the kind of experiment: microbe, parasite or virus in culture. The note with it: MTCC 739, 24 h, read-out: DIZ.
Description: Antibacterial activity against Escherichia coli MTCC 739 assessed as diameter of growth inhibition zone at 100 ug/disk after 24 hr by Kirby-Bauer disk diffusion method

Values after ≈ are worked out from the molar mass of the structure shown. A value given as a limit tells only on which side of the number the result lay.

As usually defined, the MIC99 is an inhibitory concentration at the 99% level, which refers to growth in some studies and to a panel of isolates in others. The term MIC denotes the least concentration at which growth counts as inhibited. Consider `Cc1cccc(C(=O)N2C(=O)S/C(=C\c3ccc(S(=O)(=O)Nc4nc(-c5ccccc5)cs4)cc3)C2=O)c1`, for which the “diameter of the inhibition zone (DIZ)” value in assay [1] is reported as 18 mm; in [3], 19 mm; in assay [5], 18 mm; in [8], 18 mm. Also, the MIC99 in assay [2] was determined as 125 mg/L (≈ 223 µM). For the same molecule, the minimal inhibitory concentration (MIC) in assay [4], in assay [6], in assay [7] and in assay [9] was 100 mg/L (≈ 178 µM) in each case.

Consider `Cc1ccc(C(=O)N2C(=O)S/C(=C\c3ccc(S(=O)(=O)Nc4nc(-c5ccccc5)cs4)cc3)C2=O)cc1`, for which the “diameter of the inhibition zone (DIZ)” value in assay [1] was determined as 22 mm; in assay [3] it was 22 mm; in assay [5] it was 22 mm; in assay [8], 23 mm. Moreover, in [2], the MIC99 was 250 mg/L (≈ 445 µM). The minimum inhibitory concentration (MIC) in assay [4], in assay [6], in [7] and in assay [9] was 50 mg/L (≈ 89 µM) in each case.

On to `O=C1S/C(=C\c2ccc(S(=O)(=O)Nc3nc(-c4ccccc4)cs3)cc2)C(=O)N1C(=O)c1ccccc1Cl`, for which the “diameter of the inhibition zone (DIZ)” value in assay [1] is 25 mm; in assay [3], 24 mm; in assay [5] it was 24 mm; in [8], 26 mm. The MIC99 in assay [2] was 62.5 mg/L (≈ 107 µM). Moreover, the MIC in assay [4] amounted to 12.5 mg/L (≈ 21.5 µM); in assay [6], 6.25 mg/L (≈ 10.7 µM); in assay [7] it was 6.25 mg/L (≈ 10.7 µM); in [9], 12.5 mg/L (≈ 21.5 µM).

As for `O=C1S/C(=C\c2ccc(S(=O)(=O)Nc3nc(-c4ccccc4)cs3)cc2)C(=O)N1C(=O)c1cccc(Cl)c1`, the “diameter of the inhibition zone (DIZ)” value in assay [1] is on record as 24 mm; in assay [3], 24 mm; in assay [5], 26 mm; in assay [8] it was 25 mm. In addition, in [2], the MIC99 was 62.5 mg/L (≈ 107 µM). Also, the MIC is 25 mg/L (≈ 42.9 µM) in assay [4], 12.5 mg/L (≈ 21.5 µM) in assay [6], 12.5 mg/L (≈ 21.5 µM) in [7] and 25 mg/L (≈ 42.9 µM) in assay [9].

For the molecule `O=C1S/C(=C\c2ccc(S(=O)(=O)Nc3nc(-c4ccccc4)cs3)cc2)C(=O)N1C(=O)c1ccc(Cl)cc1`, the “diameter of the inhibition zone (DIZ)” value in [1] is reported as 23 mm; in [3] it was 22 mm; in assay [5], 24 mm; in assay [8] it was 26 mm. Also, in [2], the MIC99 is 62.5 mg/L (≈ 107 µM). In addition, the MIC in [4] is 25 mg/L (≈ 42.9 µM); in assay [6] it was 6.25 mg/L (≈ 10.7 µM); in assay [7], 6.25 mg/L (≈ 10.7 µM); in assay [9] it was 12.5 mg/L (≈ 21.5 µM).

Consider `O=C1S/C(=C\c2ccc(S(=O)(=O)Nc3nc(-c4ccccc4)cs3)cc2)C(=O)N1C(=O)c1cccc([N+](=O)[O-])c1`, for which the “diameter of the inhibition zone (DIZ)” value in [1] amounted to 22 mm; in assay [3] it was 22 mm; in assay [5], 21 mm; in [8], 24 mm. The MIC99 in [2] is 1000 mg/L (≈ 1690 µM). For the same molecule, the minimum inhibitory concentration (MIC) in assay [4] came out at 62.5 mg/L (≈ 105 µM); in assay [6] it was 62.5 mg/L (≈ 105 µM); in assay [7], 25 mg/L (≈ 42.2 µM); in [9], 62.5 mg/L (≈ 105 µM).

Turning to `O=C1S/C(=C\c2ccc(S(=O)(=O)Nc3nc(-c4ccccc4)cs3)cc2)C(=O)N1C(=O)c1ccc([N+](=O)[O-])cc1`, the “diameter of the inhibition zone (DIZ)” value in assay [1] worked out at 24 mm; in assay [3], 24 mm; in assay [5] it was 25 mm; in assay [8], 24 mm. Further, the MIC99 in assay [2] was determined as 500 mg/L (≈ 844 µM). The minimum inhibitory concentration (MIC) in assay [4] stood at 50 mg/L (≈ 84.4 µM); in assay [6], 25 mg/L (≈ 42.2 µM); in assay [7] it was 12.5 mg/L (≈ 21.1 µM); in assay [9], 25 mg/L (≈ 42.2 µM).

In the case of `O=C1S/C(=C\c2ccc(S(=O)(=O)Nc3nc(-c4ccccc4)cs3)cc2)C(=O)N1C(=O)c1ccc([N+](=O)[O-])cc1[N+](=O)[O-]`, the “diameter of the inhibition zone (DIZ)” value is listed as 24 mm in assay [1], 22 mm in assay [3], 23 mm in [5] and 22 mm in assay [8]. Besides, the MIC99 in assay [2] was found to be 1000 mg/L (≈ 1570 µM). For the same molecule, the MIC in assay [4] came to 12.5 mg/L (≈ 19.6 µM); in [6], 12.5 mg/L (≈ 19.6 µM); in [7], 6.25 mg/L (≈ 9.8 µM); in [9], 100 mg/L (≈ 157 µM).

Consider `O=C1S/C(=C\c2ccc(S(=O)(=O)Nc3nc(-c4ccccc4)cs3)cc2)C(=O)N1C(=O)c1ccccc1`, for which the “diameter of the inhibition zone (DIZ)” value in assay [1] was 22 mm; in assay [3] it was 22 mm; in [5], 21 mm; in assay [8], 24 mm. Further, the MIC99 in assay [2] came to 125 mg/L (≈ 228 µM). The MIC in [4] worked out at 62.5 mg/L (≈ 114 µM); in assay [6], 62.5 mg/L (≈ 114 µM); in [7], 25 mg/L (≈ 45.7 µM); in [9], 62.5 mg/L (≈ 114 µM).

For the molecule `O=C(O)c1cn(C2CC2)c2cc(N3CCNCC3)c(F)cc2c1=O` [CIPROFLOXACIN], the zone of inhibition at 100 µg/disc in assay [10] was found to be 31 mm; in assay [11], 33 mm; in [12], 32 mm; in assay [13], 30 mm. The minimum inhibitory concentration (MIC) in [4], in assay [6], in assay [7] and in assay [9] was ≤ 1 mg/L each time.

Turning to `NNC(=O)c1ccncc1` [ISONIAZID], the MIC99 in assay [2] turned out to be 0.2 mg/L (≈ 1.46 µM).

For the origin of these results see ChEMBL document CHEMBL3045794, “Antimicrobial activity of thiazolyl benzenesulfonamide-condensed 2,4-thiazolidinediones derivatives” (2013).
